Data: ChEMBL document CHEMBL5726651, “Alkyne compounds for treatment of complement mediated disorders” (2017)

Molecular target: Complement factor D (Homo sapiens, UniProt P00746)
Assay: Inhibition Assay: Human factor D (purified from human serum, Complement Technology, Inc.) at 80 nM final concentration is incubated with test compound at various concentrations for 5 minutes at room temperature in 50 mM Tris, 1M NaCl, pH 7.5. A synthetic substrate Z-L-Lys-SBzl and DTNB (Ellman's reagent) are added to final concentrations of 100 μM each. The increase in color is recorded at OD405 nm in a microplate in kinetic mode over 30 minutes with 30 second time points in a […]. IC50 values are calculated by non-linear regression from the percentage of inhibition of complement factor D activity as a function of test compound concentration.

Chain of Complement factor D (P00746 whole entry): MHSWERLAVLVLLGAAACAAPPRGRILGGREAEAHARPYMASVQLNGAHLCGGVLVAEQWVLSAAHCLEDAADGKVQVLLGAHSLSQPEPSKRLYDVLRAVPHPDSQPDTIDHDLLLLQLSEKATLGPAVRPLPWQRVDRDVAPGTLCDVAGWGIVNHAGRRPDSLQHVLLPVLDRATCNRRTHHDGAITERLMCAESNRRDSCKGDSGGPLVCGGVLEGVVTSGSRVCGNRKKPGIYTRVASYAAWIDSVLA

With `NC(=O)c1nn(CC(=O)N2C[C@H](F)C[C@H]2C(=O)Nc2cncc(Br)n2)c2ccc(C#Cc3ncc(F)cn3)cc12` the IC50 was under 1 µM.
